According to article PMC12475274, “Harnessing indole scaffolds to identify small-molecule IRE1α inhibitors modulating XBP1 mRNA splicing” (Nature Communications, 2025):

What was measured:
Assay in all cases: Kinase profiling (SelectScreen), ZLYTE
Assay type in all cases: biochemical
[1] = target: ABL1 (Homo sapiens, UniProt P00519)
Description: (§1) Kinase profiling was conducted by the SelectScreen Kinase Profiling Services (Thermo Fisher), using Z′-LYTE, Adapta, or LanthaScreen Eu Kinase Binding Assay for different kinases. The kinome phylogenetic tree was generated using the KinMap web portal.

[2] = target: ACVR1B (ALK4) (Homo sapiens, UniProt P36896)
Description: as §1

[3] = target: AMPK A1/B1/G1 (Homo sapiens, UniProt Q13131)
Description: as §1

[4] = target: AURKA (Aurora A) (Homo sapiens, UniProt O14965)
AURKA (Aurora A), sequence (O14965 whole entry): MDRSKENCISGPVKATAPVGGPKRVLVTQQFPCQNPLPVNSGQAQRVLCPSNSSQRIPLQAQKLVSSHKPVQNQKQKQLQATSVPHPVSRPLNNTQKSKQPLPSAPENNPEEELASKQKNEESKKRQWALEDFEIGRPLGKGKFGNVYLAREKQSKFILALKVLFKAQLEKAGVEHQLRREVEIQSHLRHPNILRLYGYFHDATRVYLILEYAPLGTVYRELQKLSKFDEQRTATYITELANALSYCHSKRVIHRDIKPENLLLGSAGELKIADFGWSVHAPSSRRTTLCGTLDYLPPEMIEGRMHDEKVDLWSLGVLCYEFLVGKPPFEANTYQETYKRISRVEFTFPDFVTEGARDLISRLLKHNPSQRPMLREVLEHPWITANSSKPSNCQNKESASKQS
Description: as §1

[5] = target: CAMK1D (CaMKI delta) (Homo sapiens, UniProt Q8IU85)
Description: as §1

[6] = target: CHEK1 (CHK1) (Homo sapiens, UniProt O14757)
Description: as §1

[7] = target: CLK2 (Homo sapiens, UniProt P49760)
Description: as §1

[8] = target: CSNK1G2 (CK1 gamma 2) (Homo sapiens, UniProt P78368)
CSNK1G2 (CK1 gamma 2), sequence (P78368 whole entry): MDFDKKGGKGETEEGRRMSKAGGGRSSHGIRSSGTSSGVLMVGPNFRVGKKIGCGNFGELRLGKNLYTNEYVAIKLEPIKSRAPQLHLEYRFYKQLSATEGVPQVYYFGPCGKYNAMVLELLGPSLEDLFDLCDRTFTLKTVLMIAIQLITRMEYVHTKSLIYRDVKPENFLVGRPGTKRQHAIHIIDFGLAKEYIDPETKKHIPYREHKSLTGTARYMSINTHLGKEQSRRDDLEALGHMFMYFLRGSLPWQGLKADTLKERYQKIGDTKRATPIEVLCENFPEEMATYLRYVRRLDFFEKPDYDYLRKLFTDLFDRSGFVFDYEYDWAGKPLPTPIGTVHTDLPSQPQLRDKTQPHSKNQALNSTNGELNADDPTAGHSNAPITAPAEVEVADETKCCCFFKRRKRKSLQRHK
Description: as §1

[9] = target: DAPK3 (ZIPK) (Homo sapiens, UniProt O43293)
Description: as §1

[10] = target: DNA-PK (Homo sapiens, UniProt P78527)
Description: as §1

[11] = target: DYRK1A (Homo sapiens, UniProt Q13627)
Description: as §1

[12] = target: DYRK3 (Homo sapiens, UniProt O43781)
Description: as §1

[13] = target: EPHA2 (Homo sapiens, UniProt P29317)
Description: as §1

[14] = target: EPHB4 (Homo sapiens, UniProt P54760)
Description: as §1

[15] = target: ERBB2 (HER2) (Homo sapiens, UniProt P04626)
Description: as §1

[16] = target: FGFR1 (Homo sapiens, UniProt P11362)
Description: as §1

[17] = target: FLT3 (Homo sapiens, UniProt P36888)
Description: as §1

[18] = target: FRAP1 (mTOR) (Homo sapiens, UniProt P42345)
Description: as §1

[19] = target: GSK3B (GSK3 beta) (Homo sapiens, UniProt P49841)
Description: as §1

[20] = target: HIPK4 (Homo sapiens, UniProt Q8NE63)
HIPK4, sequence (Q8NE63 whole entry): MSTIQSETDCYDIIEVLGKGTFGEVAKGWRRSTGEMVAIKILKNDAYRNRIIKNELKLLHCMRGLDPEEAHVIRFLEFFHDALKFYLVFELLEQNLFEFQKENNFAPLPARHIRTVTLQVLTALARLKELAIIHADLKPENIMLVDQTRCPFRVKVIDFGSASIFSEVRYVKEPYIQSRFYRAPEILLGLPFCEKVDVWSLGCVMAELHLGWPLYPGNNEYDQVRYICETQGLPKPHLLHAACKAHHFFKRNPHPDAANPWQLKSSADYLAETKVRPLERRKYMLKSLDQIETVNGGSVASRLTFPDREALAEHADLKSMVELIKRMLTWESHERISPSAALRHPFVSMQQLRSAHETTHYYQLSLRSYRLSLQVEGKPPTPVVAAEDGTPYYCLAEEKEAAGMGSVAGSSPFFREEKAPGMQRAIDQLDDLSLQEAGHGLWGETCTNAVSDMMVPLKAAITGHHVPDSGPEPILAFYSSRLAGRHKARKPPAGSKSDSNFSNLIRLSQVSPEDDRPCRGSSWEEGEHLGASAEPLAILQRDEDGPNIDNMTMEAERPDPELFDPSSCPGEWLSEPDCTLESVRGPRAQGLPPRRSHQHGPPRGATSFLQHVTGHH
Description: as §1

[21] = target: IGF1R (Homo sapiens, UniProt P08069)
Description: as §1

[22] = target: IKBKE (IKK epsilon) (Homo sapiens, UniProt Q14164)
Description: as §1

[23] = target: KDR (VEGFR2) (Homo sapiens, UniProt P35968)
Description: as §1

[24] = target: MAP2K6 (MKK6) (Homo sapiens, UniProt P52564); settings: IA107 at 5 μM; ATP 100 μM
Description: as §1

[25] = target: MAPK1 (ERK2) (Homo sapiens, UniProt P28482)
Description: as §1

[26] = target: MAPK14 (p38 alpha) (Homo sapiens, UniProt Q16539); settings: IA107 at 5 μM; ATP 100 μM
MAPK14 (p38 alpha), sequence (Q16539 whole entry): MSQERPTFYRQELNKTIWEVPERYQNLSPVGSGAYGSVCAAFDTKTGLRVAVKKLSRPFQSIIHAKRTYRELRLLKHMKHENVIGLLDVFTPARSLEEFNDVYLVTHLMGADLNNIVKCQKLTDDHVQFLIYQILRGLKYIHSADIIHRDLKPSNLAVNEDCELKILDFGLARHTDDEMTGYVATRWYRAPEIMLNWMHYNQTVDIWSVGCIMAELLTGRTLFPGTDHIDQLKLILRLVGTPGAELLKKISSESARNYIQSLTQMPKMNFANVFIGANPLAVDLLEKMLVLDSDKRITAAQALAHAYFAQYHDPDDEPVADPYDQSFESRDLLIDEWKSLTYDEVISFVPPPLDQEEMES
Description: as §1

[27] = target: MAPK8 (JNK1) (Homo sapiens, UniProt P45983); settings: IA107 at 5 μM; ATP 100 μM
Description: as §1

[28] = target: MAPKAPK2 (Homo sapiens, UniProt P49137)
Description: as §1

[29] = target: MET (cMet) (Homo sapiens, UniProt P08581)
Description: as §1

[30] = target: NEK1 (Homo sapiens, UniProt Q96PY6)
Description: as §1

[31] = target: PRKCB1 (PKC beta I) (Homo sapiens, UniProt P05771)
Description: as §1

[32] = target: RET (Homo sapiens, UniProt P07949)
Description: as §1

[33] = target: ROCK1 (Homo sapiens, UniProt Q13464)
ROCK1, sequence (Q13464 whole entry): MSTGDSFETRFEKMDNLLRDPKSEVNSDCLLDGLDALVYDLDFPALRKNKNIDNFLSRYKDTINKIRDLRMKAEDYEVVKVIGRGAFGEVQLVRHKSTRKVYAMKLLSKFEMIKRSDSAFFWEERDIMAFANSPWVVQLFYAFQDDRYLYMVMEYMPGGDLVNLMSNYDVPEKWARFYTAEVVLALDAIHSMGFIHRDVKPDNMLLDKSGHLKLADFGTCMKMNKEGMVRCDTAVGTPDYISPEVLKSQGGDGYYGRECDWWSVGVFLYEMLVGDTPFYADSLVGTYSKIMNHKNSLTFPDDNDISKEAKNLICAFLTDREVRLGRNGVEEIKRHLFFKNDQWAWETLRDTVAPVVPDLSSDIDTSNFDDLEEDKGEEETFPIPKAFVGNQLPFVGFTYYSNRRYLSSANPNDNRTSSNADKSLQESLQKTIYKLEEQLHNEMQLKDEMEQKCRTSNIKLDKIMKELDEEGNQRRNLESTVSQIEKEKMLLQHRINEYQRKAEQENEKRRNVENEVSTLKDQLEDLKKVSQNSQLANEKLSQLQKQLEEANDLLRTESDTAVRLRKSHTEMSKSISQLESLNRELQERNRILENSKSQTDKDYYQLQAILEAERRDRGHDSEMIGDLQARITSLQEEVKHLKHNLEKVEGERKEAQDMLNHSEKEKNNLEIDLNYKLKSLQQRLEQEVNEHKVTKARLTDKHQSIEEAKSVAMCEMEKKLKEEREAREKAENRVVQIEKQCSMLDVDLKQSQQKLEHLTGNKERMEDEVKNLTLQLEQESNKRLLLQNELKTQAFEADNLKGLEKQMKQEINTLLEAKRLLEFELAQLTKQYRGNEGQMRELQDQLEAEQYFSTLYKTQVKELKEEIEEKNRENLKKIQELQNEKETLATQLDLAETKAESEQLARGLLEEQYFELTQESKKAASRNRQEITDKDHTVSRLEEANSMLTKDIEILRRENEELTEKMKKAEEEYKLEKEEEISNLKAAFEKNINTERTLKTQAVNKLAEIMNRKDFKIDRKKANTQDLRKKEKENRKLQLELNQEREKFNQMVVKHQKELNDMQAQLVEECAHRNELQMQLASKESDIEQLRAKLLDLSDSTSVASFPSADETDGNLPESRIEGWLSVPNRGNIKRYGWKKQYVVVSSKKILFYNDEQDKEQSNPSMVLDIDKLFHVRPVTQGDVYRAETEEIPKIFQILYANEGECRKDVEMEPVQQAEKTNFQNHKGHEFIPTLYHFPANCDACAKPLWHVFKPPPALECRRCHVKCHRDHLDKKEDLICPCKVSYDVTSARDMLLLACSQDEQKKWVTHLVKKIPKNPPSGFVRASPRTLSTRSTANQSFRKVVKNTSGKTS
Description: as §1

[34] = target: RPS6KB1 (p70S6K) (Homo sapiens, UniProt P23443)
Description: as §1

[35] = target: SGKL (SGK3) (Homo sapiens, UniProt Q96BR1)
SGKL (SGK3), sequence (Q96BR1 whole entry): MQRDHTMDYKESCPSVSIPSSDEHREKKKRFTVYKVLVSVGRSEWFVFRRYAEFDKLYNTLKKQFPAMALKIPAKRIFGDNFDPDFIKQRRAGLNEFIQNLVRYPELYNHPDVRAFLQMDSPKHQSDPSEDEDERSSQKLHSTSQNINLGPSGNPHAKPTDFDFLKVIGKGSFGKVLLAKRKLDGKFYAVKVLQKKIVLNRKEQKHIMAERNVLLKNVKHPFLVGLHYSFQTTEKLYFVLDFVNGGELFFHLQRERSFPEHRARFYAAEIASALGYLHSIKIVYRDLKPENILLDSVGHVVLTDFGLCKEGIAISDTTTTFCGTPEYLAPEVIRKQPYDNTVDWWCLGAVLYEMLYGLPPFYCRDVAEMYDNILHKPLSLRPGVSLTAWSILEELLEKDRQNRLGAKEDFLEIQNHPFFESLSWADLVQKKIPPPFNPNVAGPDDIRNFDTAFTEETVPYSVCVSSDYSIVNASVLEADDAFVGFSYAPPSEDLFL
Description: as §1

[36] = target: SRC (Homo sapiens, UniProt P12931)
Description: as §1

[37] = target: STK4 (MST1) (Homo sapiens, UniProt Q13043)
Description: as §1

[38] = target: SYK (Homo sapiens, UniProt P43405)
Description: as §1

[39] = target: TAOK2 (TAO1) (Homo sapiens, UniProt Q9UL54)
Description: as §1

[40] = target: TEK (Tie2) (Homo sapiens, UniProt Q02763)
Description: as §1

ABL1, sequence (P00519 whole entry): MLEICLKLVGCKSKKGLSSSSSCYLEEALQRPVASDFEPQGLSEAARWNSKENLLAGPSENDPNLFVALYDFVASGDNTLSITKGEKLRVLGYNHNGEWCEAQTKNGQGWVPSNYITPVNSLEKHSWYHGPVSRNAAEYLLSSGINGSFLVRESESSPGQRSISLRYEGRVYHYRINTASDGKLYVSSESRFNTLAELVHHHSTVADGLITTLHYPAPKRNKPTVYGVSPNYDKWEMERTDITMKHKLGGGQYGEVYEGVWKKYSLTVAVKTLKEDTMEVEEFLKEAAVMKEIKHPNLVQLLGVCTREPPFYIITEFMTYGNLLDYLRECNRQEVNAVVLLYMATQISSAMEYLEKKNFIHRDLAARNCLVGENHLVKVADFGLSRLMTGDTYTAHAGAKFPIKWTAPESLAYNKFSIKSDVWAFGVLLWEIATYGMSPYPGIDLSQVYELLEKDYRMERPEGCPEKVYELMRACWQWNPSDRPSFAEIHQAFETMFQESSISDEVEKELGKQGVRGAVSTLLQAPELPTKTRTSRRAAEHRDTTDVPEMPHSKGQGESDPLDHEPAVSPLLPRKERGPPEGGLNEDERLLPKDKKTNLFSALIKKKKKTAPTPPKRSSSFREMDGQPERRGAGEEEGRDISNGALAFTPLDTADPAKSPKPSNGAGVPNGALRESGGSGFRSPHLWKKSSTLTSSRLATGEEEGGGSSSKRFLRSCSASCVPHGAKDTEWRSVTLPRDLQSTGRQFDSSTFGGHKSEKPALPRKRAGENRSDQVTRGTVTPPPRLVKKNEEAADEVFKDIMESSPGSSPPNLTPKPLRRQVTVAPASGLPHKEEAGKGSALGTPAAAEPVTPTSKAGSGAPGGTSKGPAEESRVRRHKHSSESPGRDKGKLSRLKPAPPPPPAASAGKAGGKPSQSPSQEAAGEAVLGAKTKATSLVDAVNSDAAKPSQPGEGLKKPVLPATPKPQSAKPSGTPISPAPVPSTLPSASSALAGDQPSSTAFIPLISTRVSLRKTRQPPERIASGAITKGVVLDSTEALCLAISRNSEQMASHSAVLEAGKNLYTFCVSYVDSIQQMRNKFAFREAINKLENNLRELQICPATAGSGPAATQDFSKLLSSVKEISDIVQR

How did the inhibition at 5 µM [1] turn out when `Cc1c(CCC(=O)O)c2cc(Br)ccc2n1C(=O)c1ccccc1` [IA107] was run?
Its inhibition at 5 µM is 3%.

And the inhibition at 5 µM [2]?
Its inhibition at 5 µM is -5%.

What about the inhibition at 5 µM [3] of the same molecule?
Its inhibition at 5 µM is 9%.

And the inhibition at 5 µM [4]?
Its inhibition at 5 µM is 5%.

And the inhibition at 5 µM [5]?
Its inhibition at 5 µM is 8%.

What about the inhibition at 5 µM [6] of the same molecule?
Its inhibition at 5 µM is 10%.

What about the inhibition at 5 µM [7] of the same molecule?
The inhibition at 5 µM was 7%.

What about the inhibition at 5 µM [8] of the same molecule?
Its inhibition at 5 µM is 6%.

What about the inhibition at 5 µM [9] of the same molecule?
The inhibition at 5 µM was 1%.

What about the inhibition at 5 µM [10] of the same molecule?
Its inhibition at 5 µM is -2%.

And the inhibition at 5 µM [11]?
The inhibition at 5 µM was 4%.

What about the inhibition at 5 µM [12] of the same molecule?
The inhibition at 5 µM was 2%.

And the inhibition at 5 µM [13]?
The inhibition at 5 µM was 4%.

What about the inhibition at 5 µM [14] of the same molecule?
The inhibition at 5 µM was 3%.

And the inhibition at 5 µM [15]?
Its inhibition at 5 µM is -3%.

And the inhibition at 5 µM [16]?
Its inhibition at 5 µM is 4%.

And the inhibition at 5 µM [17]?
Its inhibition at 5 µM is 6%.

What about the inhibition at 5 µM [18] of the same molecule?
The inhibition at 5 µM was 5%.

And the inhibition at 5 µM [19]?
The inhibition at 5 µM was 21%.

What about the inhibition at 5 µM [20] of the same molecule?
The inhibition at 5 µM was 6%.

And the inhibition at 5 µM [21]?
The inhibition at 5 µM was 3%.

And the inhibition at 5 µM [22]?
The inhibition at 5 µM was 2%.

And the inhibition at 5 µM [23]?
The inhibition at 5 µM was 1%.

What about the inhibition at 5 µM [24] of the same molecule?
The inhibition at 5 µM was 2%.

And the inhibition at 5 µM [25]?
The inhibition at 5 µM was 2%.

And the inhibition at 5 µM [26]?
Its inhibition at 5 µM is 6%.

And the inhibition at 5 µM [27]?
Its inhibition at 5 µM is -8%.

What about the inhibition at 5 µM [28] of the same molecule?
The inhibition at 5 µM was 5%.

What about the inhibition at 5 µM [29] of the same molecule?
The inhibition at 5 µM was 3%.

And the inhibition at 5 µM [30]?
The inhibition at 5 µM was 17%.

What about the inhibition at 5 µM [31] of the same molecule?
The inhibition at 5 µM was 7%.

And the inhibition at 5 µM [32]?
The inhibition at 5 µM was 9%.

What about the inhibition at 5 µM [33] of the same molecule?
Its inhibition at 5 µM is 1%.

What about the inhibition at 5 µM [34] of the same molecule?
Its inhibition at 5 µM is 3%.

What about the inhibition at 5 µM [35] of the same molecule?
The inhibition at 5 µM was 1%.

And the inhibition at 5 µM [36]?
The inhibition at 5 µM was 4%.

What about the inhibition at 5 µM [37] of the same molecule?
Its inhibition at 5 µM is 0%.

What about the inhibition at 5 µM [38] of the same molecule?
Its inhibition at 5 µM is 3%.

And the inhibition at 5 µM [39]?
Its inhibition at 5 µM is -4%.

And the inhibition at 5 µM [40]?
Its inhibition at 5 µM is 6%.
